Structures are written as SMILES.

This note sets out measurements from patent US20020137929A1, “1 - (3-heterocyclylphenyl) isothiourea, -isourea, -guanidine and -amidine herbicidal agents” (Intellectual Property Department, BASF Aktiengesellschaft, priority 1998, published 2002).

Data set [1] deals with CASOB (Sicklepod). As to the kind of experiment: Postemergence herbicidal evaluation. Format: in vivo, Cassia obtusifolia. The following applies: for CASOB herbicidal rating: postemergence. Put shortly: (§1)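 Young plants, roughly two weeks from seeding, receive the active ingredient as a sprayed dispersion (acetone/water 50/50, 0.5% TWEEN 20) at 40 psi. Doses span about 0.0156 to 0.500 kg/ha. A visual score from 0 to 9 compares treated with control plants four to five weeks on.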

The test system of data set [2] is CHEAL (Lambsquarters, Common). Kind of data set: Postemergence herbicidal evaluation. Type of data set: in vivo, Chenopodium album. The conditions noted are these: for CHEAL herbicidal rating: postemergence. The procedure, abridged: as §1
Data set [3] has as its system TRZAWR (Wheat, Winter, cv Riband). As to the kind of experiment: Postemergence herbicidal evaluation. Type of data set: in vivo, Triticum aestivum. The following applies: for TRZAWR herbicidal rating: postemergence. Put shortly: as §1
For data set [4], the system named is CHEAL (Lambsquarters, Common). Kind of data set: Preemergence herbicidal evaluation. Type of data set: in vivo, Chenopodium album. The conditions noted are these: rated 4-5 weeks after treatment; for CHEAL rating: preemergence, 0-9 scale. The procedure, abridged:
(§2)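 Herbicidal effect scored visually, 0-9, at 4 to 5 weeks against a control; compound applied preemergence by aqueous acetone spray to seeded soil at about 0.0156 to 0.500 kg/ha.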

Data set [5] deals with ORYSAT (Rice, Tebonnet). Kind of data set: Preemergence herbicidal evaluation. Format: in vivo, Oryza sativa, (L.) Tebonnet. The conditions noted are these: rated 4-5 weeks after treatment; for ORYSAT rating: preemergence, 0-9 scale. Put shortly:
as §2

In data set [6] the test system is ORYSAT (Rice, Tebonnet). As to the kind of experiment: Rice tolerance to post-transplant applications, flooded paddy conditions (Table III). Format: in vivo, Oryza sativa, (L.) Tebonnet. Put shortly: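 Injury scored 0-9 by eye against untreated control, judging stand, vigor, malformation, size and chlorosis, three to four weeks after treatment. Compound in 50/50 aqueous/acetone, about 0.0313 to 0.500 kg/ha, was applied to paddy water (1.5 to 3 cm depth) three days after transplanting paired ten-day-old Tebonnet rice seedlings.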

Data set [7] concerns MOOVA (Monochoria). As to the kind of experiment: Postemergence weed control under flooded paddy conditions. Format: in vivo, Monochoria vaginalis. The following applies: postemergence weeds, 3-4 weeks after treatment. Put shortly:
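Flood-water application, about 0.0313–0.500 kg/ha a.i. in aqueous/acetone 50/50 v/v; water depth 1.5–3 cm throughout. Weeds 3–5 cm, rice 1.5–2.5 leaf. Greenhouse; 0–9 visual rating vs control at 3–4 wk.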

Data set [8] deals with ORYSAT (Rice, Tebonnet). Kind of data set: Rice tolerance to post-transplant applications, flooded paddy conditions (Table IV). Format: in vivo, Oryza sativa, (L.) Tebonnet. The text has this:
Results of herbicide evaluation are expressed on a rating scale (0-9). The scale is based upon a visual observation of plant stand, vigor, malformation, size, chlorosis and overall plant appearance as compared with a control.
Plastic containers containing weeds which are 3 to 5 cm tall and rice seedlings at the 1.5 to 2.5 leaf stage are flooded with water. The water is maintained at 1.5 to 3 cm above the soil surface for the duration of the experiment. Test compounds are applied as aqueous/ acetone mixtures 50/50 v/v directly into the flood water to provide the equivalent of about 0.0313 to 0.500 kg/ha of active ingredient. The treated containers are placed on greenhouse benches and cared for in accordance with conventional greenhouse procedures. Three to four weeks after treatment, the test is terminated and each container is examined and herbicidal effect rated according to the rating system provided in Example 37. The compounds evaluated are reported by compound number given in Example 37.

Where [9] appears, read: 0.1250 kg/ha, post-transplant rice, flooded paddy, rated 3-4 weeks after treatment.
[10] abbreviates: 0.2500 kg/ha, post-transplant rice, flooded paddy, rated 3-4 weeks after treatment.
Setting [11] is: rate 0.1250 kg/ha, flooded paddy, post-transplant rice, 3-4 weeks after treatment.
Setting [12] is: rate 0.2500 kg/ha, flooded paddy, post-transplant rice, 3-4 weeks after treatment.

As for `CCOC(=O)CN1C(=O)C(=C(C)C)S/C1=N/c1cc(-n2c(=O)cc(C(F)(F)F)n(C)c2=O)c(F)cc1Cl` [Compound 20, Ethyl 2-{{2-chloro-5-[3,6-dihydro-3-methyl-2,6-dioxo-4-(trifluoromethyl)-1(2H)-pyrimidinyl]-4-fluorophenyl}imino}-5-isopropylidene-4-oxo-3-thiazolidineacetate], the CASOB herbicidal rating turned out to be 0.0 in data set [1] (rate 0.0158 kg/ha), 0.0 in data set [1] (rate 0.0315 kg/ha) and 2.0 in data set [1] (rate 0.0630 kg/ha). The figures for the CHEAL herbicidal rating in data set [2] (rate 0.0158 kg/ha), in data set [2] (rate 0.0315 kg/ha) and in data set [2] (rate 0.0630 kg/ha) were 4.0, 6.0 and 7.0, respectively. The TRZAWR herbicidal rating in data set [3] (rate 0.0158 kg/ha) stood at 3.5; in data set [3] (rate 0.0315 kg/ha) it was 4.0; in data set [3] (rate 0.0630 kg/ha) it was 4.0. For the same compound, the “CHEAL preemergence herbicidal rating” value in data set [4] (rate 0.0625 kg/ha), in data set [4] (rate 0.1250 kg/ha) and in data set [4] (rate 0.2500 kg/ha) was 9.0 throughout. Besides, the “ORYSAT preemergence herbicidal rating” value in data set [5] (rate 0.0625 kg/ha), in data set [5] (rate 0.1250 kg/ha) and in data set [5] (rate 0.2500 kg/ha) was 0.0 throughout. Moreover, the “Herbicidal rating ORYSAT (rice tolerance)” value in data set [6] (in vivo) and in data set [8] (in vivo) was 2.0 each time. The “Herbicidal rating MOOVA” value in data set [7] (rate 0.1160 kg/ha), in data set [7] (rate 0.2310 kg/ha) and in data set [7] (rate 0.4630 kg/ha) was 9.0 throughout.

Consider `CCOC(=O)CN1C(=O)C[S+]([O-])/C1=N/c1cc(-n2c(=O)cc(C(F)(F)F)n(C)c2=O)c(F)cc1Cl` (stereo not shown) [Compound 45, 2-{{2-Chloro-5-[3,6-dihydro-3-methyl-2,6-dioxo-4-(trifluoromethyl)-1(2H)-pyrimidinyl]-4-fluoro-phenyl}imino}-4-oxo-3-thiazolidineacetic acid, ethyl ester, 1-oxide], for which the “Postemergence herbicidal rating CASOB” value in data set [1] (Rate 0.0156 kg/ha), in data set [1] (Rate 0.0313 kg/ha) and in data set [1] (Rate 0.0625 kg/ha) was 0.0 throughout. Moreover, the “Postemergence herbicidal rating CHEAL” value in data set [2] (Rate 0.0156 kg/ha) is reported as 0.0; in data set [2] (Rate 0.0313 kg/ha), 5.0; in data set [2] (Rate 0.0625 kg/ha), 9.0. Moreover, the “Postemergence herbicidal rating TRZAWR” value in data set [3] (Rate 0.0156 kg/ha) came out at 4.0; in data set [3] (Rate 0.0313 kg/ha), 4.0; in data set [3] (Rate 0.0625 kg/ha), 4.5. Also, the “Preemergence herbicidal rating CHEAL” value in data set [4] (rate 0.0156 kg/ha), in data set [4] (rate 0.0313 kg/ha), in data set [4] (rate 0.0625 kg/ha), in data set [4] (rate 0.1250 kg/ha) and in data set [4] (rate 0.2500 kg/ha) was 9.0 throughout. The “Preemergence herbicidal rating ORYSAT” value in data set [5] (rate 0.0156 kg/ha), in data set [5] (rate 0.0313 kg/ha), in data set [5] (rate 0.0625 kg/ha), in data set [5] (rate 0.1250 kg/ha) and in data set [5] (rate 0.2500 kg/ha) was 0.0 in each case. Also, the “Herbicidal rating ORYSAT (rice tolerance)” value in data set [6] (0.0313 kg/ha, post-transplant rice, flooded paddy, rated 3-4 weeks after treatment) was found to be 3.0; in data set [6] (0.0625 kg/ha, post-transplant rice, flooded paddy, rated 3-4 weeks after treatment), 2.0; in data set [6] (setting [9]), 2.0; in data set [6] (setting [10]), 3.0; in data set [8] (rate 0.0313 kg/ha, flooded paddy, post-transplant rice, 3-4 weeks after treatment) it was 3.0; in data set [8] (rate 0.0625 kg/ha, flooded paddy, post-transplant rice, 3-4 weeks after treatment), 2.0. The “Herbicidal rating ORYSAT (rice tolerance)” value in data set [8] (setting [11]) is reported as 2.0; in data set [8] (setting [12]), 3.0. The “Herbicidal rating MOOVA” value in data set [7] (rate 0.0313 kg/ha) came to 7.0; in data set [7] (rate 0.0625 kg/ha) it was 7.0; in data set [7] (rate 0.1250 kg/ha), 9.0; in data set [7] (rate 0.2500 kg/ha) it was 9.0.

`COC(=O)C1(N2C(=O)CSC2=Nc2cc(-n3c(=O)cc(C(F)(F)F)n(C)c3=O)c(F)cc2Cl)CCCCC1` [Compound 81, Methyl 1-{2-{{2-chloro-5-[3,6-dihydro-3-methyl-2,6-dioxo-4-(trifluoromethyl)-1(2H)-pyrimidinyl]-4-fluorophenyl}imino}-4-oxo-3-thiazolidinyl}-cyclohexanecarboxylate]: the CASOB herbicidal rating in data set [1] (rate 0.0158 kg/ha) is 1.0; in data set [1] (rate 0.0315 kg/ha), 2.0; in data set [1] (rate 0.0630 kg/ha), 5.0. For the same compound, the results for the CHEAL herbicidal rating in data set [2] (rate 0.0158 kg/ha) and in data set [2] (rate 0.0315 kg/ha) were 4.0 and 3.0, respectively. Besides, the values for the TRZAWR herbicidal rating in data set [3] (rate 0.0158 kg/ha), in data set [3] (rate 0.0315 kg/ha) and in data set [3] (rate 0.0630 kg/ha) were 4.5, 5.0 and 6.0, respectively. Further, the CHEAL rating in data set [4] (0.0313 kg/ha) was 7.0; in data set [4] (0.0625 kg/ha), 9.0; in data set [4] (0.1250 kg/ha), 9.0; in data set [4] (0.2500 kg/ha), 9.0. Also, the ORYSAT rating in data set [5] (0.0313 kg/ha) amounted to 0.0; in data set [5] (0.0625 kg/ha) it was 0.0; in data set [5] (0.1250 kg/ha), 1.0; in data set [5] (0.2500 kg/ha) it was 1.0. Moreover, the “ORYSAT herbicidal effect rating (rice tolerance)” value in data set [6] (in vivo) worked out at 0.0. Besides, the “Herbicidal rating ORYSAT (rice tolerance)” value in data set [8] (in vivo) is recorded as 0.0.

Turning to `CCOP(=O)(CN1C(=O)CSC1=Nc1cc(-n2c(=O)cc(C(F)(F)F)n(C)c2=O)c(F)cc1Cl)OCC` [Compound 35, Diethyl {{2-{{2-chloro-5-[3,6-dihydro-3-methyl-2,6-dioxo-4-(trifluoromethyl)-1(2H)-pyrimidinyl]-4-fluorophenyl}imino}-4-oxo-3-thiazolidinyl}methyl}phosphonate], the figures for the “Postemergence herbicidal rating CASOB” value in data set [1] (Rate 0.0158 kg/ha), in data set [1] (Rate 0.0315 kg/ha) and in data set [1] (Rate 0.0630 kg/ha) were 0.0, 3.0 and 9.0, respectively. The results for the “Postemergence herbicidal rating CHEAL” value in data set [2] (Rate 0.0158 kg/ha), in data set [2] (Rate 0.0315 kg/ha) and in data set [2] (Rate 0.0630 kg/ha) were 7.0, 9.0 and 9.0, respectively. Further, the “Postemergence herbicidal rating TRZAWR” value in data set [3] (Rate 0.0158 kg/ha) was found to be 2.5; in data set [3] (Rate 0.0315 kg/ha) it was 3.0; in data set [3] (Rate 0.0630 kg/ha), 3.5. Further, the “Preemergence herbicidal rating CHEAL” value in data set [4] (rate 0.0625 kg/ha), in data set [4] (rate 0.1250 kg/ha) and in data set [4] (rate 0.2500 kg/ha) was 9.0 each time. Besides, the “Preemergence herbicidal rating ORYSAT” value in data set [5] (rate 0.0625 kg/ha), in data set [5] (rate 0.1250 kg/ha) and in data set [5] (rate 0.2500 kg/ha) was 0.0 throughout. Further, the “Herbicidal rating ORYSAT (rice tolerance)” value in data set [6] (setting [9]) was found to be 2.0; in data set [6] (setting [10]), 3.0; in data set [8] (setting [11]) it was 2.0; in data set [8] (setting [12]) it was 3.0.
